Measurements reported in US11690828B2, “Treatment of CNS diseases with sGC stimulators” (Cyclerion Therapeutics, Inc., priority 2016, dated 2023).
pEC50: −log10 of the molar value.

Tests used:
[1] = Rat cerebrospinal fluid (CSF) pharmacokinetic properties; assay type: in vivo; details: male, Sprague-Dawley; for concentration at 1 h: CSF, PO 10 mg/kg in PEG400, 1 h post-dosing, read-out: CSF Conc (nM @ 1 h); for Kp uu at 1 h: PO 10 mg/kg, unbound CSF / unbound plasma
Method: PK in rats was determined following oral dosing. For the oral (PO) experiments, a group of 6 male Sprague-Dawley rats with an indwelling catheter placed in the cisterna magna were used. The PO group was dosed with 3 or 10 mg/kg of a compound formulated as a solution in PEG400. PO doses were administered by oral gavage and delivered to the stomach using a syringe and gavage tube. Following oral dosage administration, the gavage tube was flushed with approximately 0.5 mL of water to ensure complete delivery of the full dose.
Plasma and CSF samples were collected as follows: samples of CSF and blood were collected at 1 hour and 2 hours post-dosing. CSF samples (0.05 mL) were collected through the intracisternal catheter. Blood samples (0.25 mL) were collected through retro-orbital sampling. These samples were kept on ice until processed for plasma. Blood samples were centrifuged at 3200 rpm for 5 minutes at approximately 5° C. within 1 hour of collection. Plasma was directly transferred to a 96-well plate tube (0.125 mL). Plug caps were placed on the tubes and the tubes frozen at approximately −70° C. and stored until analysis.
Plasma was collected and analyzed for the presence of compound.
The compound in question and the internal standard were extracted from plasma and CSF by precipitation. Samples were analyzed using liquid chromatography (LC) with tandem mass spectrometric detection (MS/MS) using electrospray ionization. The standard curve range was from 1 to 1000 ng/mL.
Kp,uu is defined as the concentration ratio of unbound drug in CSF to unbound drug in plasma. Unbound drug in plasma (or free plasma concentration) is calculated by multiplying the total plasma concentration by the unbound fraction as determined by plasma protein binding. The CSF concentration is then divided by the free plasma concentration to determine the Kp,uu. (See e.g., Di et al., J. Med. Chem., 56, 2-12 (2013)).

[2] = tested on: Healthy rats; experiment: Healthy rats - tail flick test; assay type: in vivo, rat; details: Compound I-2 p.o. 10 mg/kg; 120 minutes after treatment
Method: Tail Flick Test. A radiant heat was applied on the tail. When the rat felt discomfort, it reacted by a sudden tail movement (tail flick) which automatically stopped the stimulation and the timer for the measurement by the animal reaction time or nociceptive reaction latency (period from the beginning of the stimulation until detection of the response of the animal). A cut-off was previously fixed at 10 sec in order to prevent tissue damage.
(§1) Testing: 120 minutes after treatment. N=4/model/test. Results are expressed for each group as a percentage of activity calculated from the mean value of the vehicle-treated animals and compared to naïve animals, control paw, or cut-off value, depending on the test.

[3] = tested on: rats; experiment: Oxaliplatin - acetone test (reaction time); assay type: in vivo, rat; details: Compound I-2 p.o. 10 mg/kg; 120 minutes after treatment
Method: Oxaliplatin. Induction: Acute peripheral neuropathy was induced by a single intraperitoneal injection of oxaliplatin (6 mg/kg, i.p) 30 hours before testing. Acetone test: Cold allodynia was measured using the acetone test. In this test, the latency of hind paw withdrawal was measured after application of a drop of acetone (50 μL) to the plantar surface of both hind paws three times for both hind paws alternatively with intervals of approximately 2-3 min.
as §1

[4] = tested on: sGC; experiment: cGMP neuronal cell-based assay; details: rat primary hippocampal neurons; 30 μM DETA-NO; 50% of high control (10 μM Compound Y); read-out: sGC-neuron Abs EC50
Method: Rat primary neurons were isolated from fetuses of 18-day pregnant Sprague-Dawley females. The fetuses were collected in Hanks' balanced salt solution (HBSS) and brains were rapidly removed. The cerebral hippocampi were isolated and mechanically fragmented. Further tissue digestion was performed with 0.25% (wt/vol) trypsin solution in HBSS without Ca2+ and Mg2+ for 15 min at 37° C. After trypsination, cells were washed and resuspended in neurobasal medium supplemented with 0.5 mM L-glutamine, 12.5 uM glutamic acid, 2% B-27 and 100 U/mL penicillin, and 100 μg/mL streptomycin. Cells were plated at a density of 4×10^4 cells/well in a poly-D-lysine coated 384-well flat clear-bottom plate (Corning Cat No 354662). Cells were incubated 6-7 days at 37° C. in a humidified chamber with 5% CO2. Media was removed and cells were washed 1× with HBSS containing Ca2+ and Mg2+, and replaced with 40 uL HBSS containing 0.5 mM IBMX, and incubated for 15 minutes at 37° C. 10 uL of a 5× stock of test compounds with diethylenetriamine NONOate (DETA-NO) was added. Final concentration of DETA-NO was 30 μM. Cells were incubated for 20 min at 37° C. Medium was removed, 50 uL of ice-cold 10% acetic acid was added, and incubated for 60 minutes at 4° C. Following centrifugation at 4° C. for 5 minutes at 1000×g to pellet cell debris, the supernatant was aspirated to a clean plate and the samples were analyzed for cGMP content. cGMP concentrations were determined from each sample using LC-MS/MS.
Data were normalized to a high control using the following equation: 100*(Sample−Low Control)/(High Control−Low Control), where the low control is the average of 15 samples treated with 1% DMSO, and the high control is the average of 15 samples treated with 10 μM of the known sGC stimulator Compound Y (depicted in Example 2). Data were fit using a 4-parameter fit (log(agonist) vs. response—variable slope) using GraphPad Prism Software v.5. n=2 for all compounds. […]

Row | concentration at 1 h [1] | Kp uu at 1 h [1] | pEC50 [4] | SMILES | % of activity vs. vehicle, healthy rats tail flick test [2] | % of activity vs. vehicle, oxaliplatin acetone test (reaction time) [3]
1 | 62.9 nM | 3.16 | ≥ 7.00 | Fc1ccccc1Cn1nc(-c2nc(C(F)(F)F)n[nH]2)c2cccnc21 [Compound I-2] | 15% | 127%
2 | 446 nM | 3.26 | ≥ 7.00 | FC(F)(F)c1n[nH]c(-c2nc(Cc3cncnc3)c3ccccn23)n1 [Compound I-5] | – | –
